Source: patent US20110100079A1, “METHOD FOR IMPARTING STRESS TOLERANCE TO PLANT” (priority 2007, published 2011)

What was measured:
Type in all cases: in vivo
potato = experiment: Example 9 drying stress test (potato), soil culture; details: 23° C., 100 ppm, 2 weeks; for Fresh weight, relative value (untreated plot = 100), Test 1 / Fresh weight, relative value (untreated plot = 100), Test 4 / Fresh weight, relative value (untreated plot = 100), Test 2 / Fresh weight, relative value (untreated plot = 100), Test 3: potato soil culture; for Fresh weight, relative value (untreated plot = 100), Test 1: EC 1, pF 2.8, two-leaf stage; for Fresh weight, relative value (untreated plot = 100), Test 4: EC 1, pF 3.5, five-leaf stage; for Fresh weight, relative value (untreated plot = 100), Test 2: EC 1, pF 3.5, two-leaf stage; for Fresh weight, relative value (untreated plot = 100), Test 3: EC 1, pF 4.1, two-leaf stage; for Fresh weight, relative value (untreated plot = 100), Comparison 1: stress-free: potato soil culture, EC 1, pF 1.7, two-leaf stage
Protocol: The environmental conditions in a climatic chamber were controlled so as to have a temperature of 23° C., an illuminance by a fluorescent light of 5000 Lux, and a daily light-dark cycle of a 16-hour light period and an 8-hour dark period. Potatoes as prepared above were transplanted in size-5 (15 cm) pots. During the test period, the pF value was controlled by adding a suitable amount of tap water once a day so as to attain a specific drying stress value. A treatment solution containing a compound of Table 5 in a specific concentration (the remainder was water) was prepared and sprayed onto the leaves or applied to the underground portions. […] A comparative example was constructed to reflect the drying stress-free optimum cultivation conditions to investigate the plant energizing ability. […] Moreover, when the products of the present invention and the comparative products were compared, the stress tolerance imparting ability of the products of the present invention was higher in respective drying stress conditions.

tomato = experiment: Example 8 temperature stress test (tomato), soil culture; details: 100 ppm, 2 weeks; for Fresh weight, relative value (untreated plot = 100), Comparison 1: stress-free: tomato soil culture, cultivation temperature 23, EC 1, pF 1.7, two-leaf stage; for Fresh weight, relative value (untreated plot = 100), Test 1 / Fresh weight, relative value (untreated plot = 100), Test 2 / Fresh weight, relative value (untreated plot = 100), Test 3 / Fresh weight, relative value (untreated plot = 100), Test 4: tomato soil culture; for Fresh weight, relative value (untreated plot = 100), Test 1: cultivation temperature 10, EC 1, pF 1.7, two-leaf stage; for Fresh weight, relative value (untreated plot = 100), Test 2: cultivation temperature 16, EC 1, pF 1.7, two-leaf stage; for Fresh weight, relative value (untreated plot = 100), Test 3: cultivation temperature 29, EC 1, pF 1.7, two-leaf stage; for Fresh weight, relative value (untreated plot = 100), Test 4: cultivation temperature 35, EC 1, pF 1.7, two-leaf stage
Protocol: Other Conditions were as in Example 5. The environmental conditions in a climatic chamber were controlled so as to have an illuminance by a fluorescent light of 5000 Lux, a daily light-dark cycle of a 16-hour light period and an 8-hour dark period, and various temperatures. Tomatoes as prepared above were transplanted in size-3 (9 cm) pots. A treatment solution containing a compound of Table 1 in a specific concentration (the remainder was water) was prepared and sprayed onto the leaves or applied to the underground portions. […] A comparative example was constructed to reflect the temperature stress-free optimum cultivation conditions to investigate the plant energizing ability. […] Moreover, when the products of the present invention and the comparative products were compared, the stress tolerance imparting ability of the products of the present invention was higher in respective temperature stress conditions.

“Momotaro” tomato [1] = experiment: Example 1 salt stress tolerance imparting test (tomato, hydroponic, Otsuka 1/2A + NaCl); details: 2 weeks
Protocol: (1) Salt stress-free test conditions: NaCl concentration (water potential by Nan): 0 ppm (0 MPa). Other cultivation conditions were as the same as the conditions of the drying stress test.
When the leaves in the 2-leaf stage fully unfolded, the soil on the tomato roots was carefully washed away with running water, and a test was performed.
Method of Salt Stress Tolerance Imparting Test
The environmental conditions in a climatic chamber were controlled so as to have a temperature of 23° C., an illuminance by a fluorescent light of 5000 Lux, and a daily light-dark cycle of a 16-hour light period and an 8-hour dark period. […] A treatment solution containing a compound of Table 1 in a specific concentration (the remainder was water) was prepared and sprayed onto the leaves or applied to the underground portion. In addition, a control plot to which no NaCl was added, not imposing a salt stress (this is a control plot for plant body weight 2 for Formula (ii) and is a stress-free control plot) and a control plot to which NaCl was added in various concentrations, imposing a salt stress, and to which the treatment solution was not applied (this is a control plot for plant body weight 1 for Formula (ii) and is a control plot including a salt stress) were prepared as controls. Ten specimens were prepared for each of the test plot and the control plots, and a plant stress level and an extent of imparting plant stress tolerance were calculated according to Formulas (II) above using as a fresh plant body weight the average of the fresh plant body weights of each specimen 2 weeks after the beginning of the test.

“Momotaro” tomato [2] = experiment: Example 3 drying stress tolerance imparting test (tomato); details: 3 weeks
Protocol: Other cultivation conditions were as with the conditions of the drying stress test. Drying stress conditions: soil pF value: 2.3, 2.5, or 2.9, cultivation temperature: 23° C., relative humidity: 50%, illuminance: 5000 Lux (fluorescent light), light/dark cycle: 16 hours/8 hours (2) Cultivation period: 3 weeks (3) Soil: Kureha gardening soil manufactured by Kureha Corporation (fertilizer components: N:P:K=0.4:1.9:0.6 g/kg soil) (4) Plant preparation: A 50-cell tray was filled with Kureha gardening soil manufactured by Kureha Corporation (fertilizer components: N:P:K=0.4:1.9:0.6 g/kg soil), and seeds of a “Momotaro” tomato were sowed, thinly covered with Kureha gardening soil, and sufficiently watered to allow the seeds to sprout. When the leaves in the 2-leaf stage fully unfolded, the soil on the tomato roots was carefully washed away with running water, and a test was performed. (5) The chemicals used and the amount of a treatment solution applied were as in Example 1. (6) Amount of treatment solution applied: 10 ml/specimen for leaf spraying, 50 ml/specimen for fertigation Method of Drying Stress Tolerance Imparting Test Five tomato specimens as prepared above were planted in a 60-cm planter placed on a plant culture rack in an air-conditioned room. […] From immediately after planting the tomatoes, a treatment solution of Table 1 was sprayed onto the leaves or applied to the underground portions once a week. […] Five specimens (per planter) were prepared for each of the test plot and the control plots, plant bodies were collected 3 weeks after the beginning of the test such that the roots were not cut, the soil was washed away with running water, the fresh plant body-weights were measured, and a plant stress level and an extent of imparting plant stress tolerance were calculated according to Formula (ii) and (iii) above using the average of the weights.

[3] = pF 2.3, leaf, 100 ppm once a week
[4] = pF 2.3, leaf, 200 ppm once a week

POE (20) sorbitan monooleic acid ester [Product of present invention 1]
Fresh weight, relative value (untreated plot = 100), Test 1 (potato; underground portion): 133 | Fresh weight, relative value (untreated plot = 100), Test 4 (potato; underground portion): 156 | Fresh weight, relative value (untreated plot = 100), Test 2 (potato; underground portion): 185 | Fresh weight, relative value (untreated plot = 100), Test 3 (potato; underground portion): 140 | Fresh weight, relative value (untreated plot = 100), Comparison 1 (potato; underground portion): 102 | Fresh weight, relative value (untreated plot = 100), Comparison 1 (tomato; underground portion): 103 | Fresh weight, relative value (untreated plot = 100), Test 1 (tomato; underground portion): 128 | Fresh weight, relative value (untreated plot = 100), Test 2 (tomato; underground portion): 131 | Fresh weight, relative value (untreated plot = 100), Test 3 (tomato; underground portion): 158 | Fresh weight, relative value (untreated plot = 100), Test 4 (tomato; underground portion): 138 | Extent of imparting plant stress tolerance (“Momotaro” tomato [1]; NaCl 1500 ppm, leaf, 100 ppm): 113% | Extent of imparting plant stress tolerance (“Momotaro” tomato [1]; NaCl 1500 ppm, underground portion, 100 ppm): 124% | Extent of imparting plant stress tolerance (“Momotaro” tomato [1]; NaCl 3510 ppm, leaf, 1 ppm): 111% | Extent of imparting plant stress tolerance (“Momotaro” tomato [1]; NaCl 3510 ppm, leaf, 10 ppm): 112% | Extent of imparting plant stress tolerance (“Momotaro” tomato [1]; NaCl 3510 ppm, leaf, 100 ppm): 113% | Extent of imparting plant stress tolerance (“Momotaro” tomato [1]; NaCl 3510 ppm, leaf, 1000 ppm): 118% | Extent of imparting plant stress tolerance (“Momotaro” tomato [1]; NaCl 3510 ppm, underground portion, 100 ppm): 130% | Extent of imparting plant stress tolerance (“Momotaro” tomato [1]; NaCl 5000 ppm, leaf, 100 ppm): 125% | Extent of imparting plant stress tolerance (“Momotaro” tomato [1]; NaCl 5000 ppm, underground portion, 100 ppm): 135% | Extent of imparting plant stress tolerance (“Momotaro” tomato [2]; pF 2.3, leaf, 1 ppm once a week): 112% | Extent of imparting plant stress tolerance (“Momotaro” tomato [2]; pF 2.3, leaf, 10 ppm once a week): 113% | Extent of imparting plant stress tolerance (“Momotaro” tomato [2]; [3]): 113% | Extent of imparting plant stress tolerance (“Momotaro” tomato [2]; pF 2.3, leaf, 1000 ppm once a week): 117% | Extent of imparting plant stress tolerance (“Momotaro” tomato [2]; pF 2.3, underground portion, 100 ppm once a week): 129% | Extent of imparting plant stress tolerance (“Momotaro” tomato [2]; pF 2.5, leaf, 100 ppm once a week): 117% | Extent of imparting plant stress tolerance (“Momotaro” tomato [2]; pF 2.5, underground portion, 100 ppm once a week): 128% | Extent of imparting plant stress tolerance (“Momotaro” tomato [2]; pF 2.9, leaf, 100 ppm once a week): 124% | Extent of imparting plant stress tolerance (“Momotaro” tomato [2]; pF 2.9, underground portion, 100 ppm once a week): 135%

C[N+](C)(C)CC(=O)[O-] [Comparative product 3, Glycine betaine, reference compound]
Fresh weight, relative value (untreated plot = 100), Test 1 (potato; leaf): 102 | Fresh weight, relative value (untreated plot = 100), Test 4 (potato; leaf): 101 | Fresh weight, relative value (untreated plot = 100), Test 2 (potato; leaf): 102 | Fresh weight, relative value (untreated plot = 100), Test 3 (potato; leaf): 102 | Fresh weight, relative value (untreated plot = 100), Comparison 1 (potato; leaf): 102 | Fresh weight, relative value (untreated plot = 100), Comparison 1 (tomato; leaf): 102 | Fresh weight, relative value (untreated plot = 100), Test 1 (tomato; leaf): 100 | Fresh weight, relative value (untreated plot = 100), Test 2 (tomato; leaf): 100 | Fresh weight, relative value (untreated plot = 100), Test 3 (tomato; leaf): 101 | Fresh weight, relative value (untreated plot = 100), Test 4 (tomato; leaf): 101 | Extent of imparting plant stress tolerance (“Momotaro” tomato [1]; NaCl 3510 ppm, leaf, 100 ppm): 103% | Extent of imparting plant stress tolerance (“Momotaro” tomato [2]; [3]): 103%

Sucrose fatty acid ester (C18, HLB = 15) [Product of present invention 20]
Fresh weight, relative value (untreated plot = 100), Test 1 (potato; leaf): 118 | Fresh weight, relative value (untreated plot = 100), Test 4 (potato; leaf): 128 | Fresh weight, relative value (untreated plot = 100), Test 2 (potato; leaf): 135 | Fresh weight, relative value (untreated plot = 100), Test 3 (potato; leaf): 118 | Fresh weight, relative value (untreated plot = 100), Comparison 1 (potato; leaf): 102 | Fresh weight, relative value (untreated plot = 100), Comparison 1 (tomato; leaf): 102 | Fresh weight, relative value (untreated plot = 100), Test 1 (tomato; leaf): 114 | Fresh weight, relative value (untreated plot = 100), Test 2 (tomato; leaf): 116 | Fresh weight, relative value (untreated plot = 100), Test 3 (tomato; leaf): 133 | Fresh weight, relative value (untreated plot = 100), Test 4 (tomato; leaf): 122 | Extent of imparting plant stress tolerance (“Momotaro” tomato [1]; NaCl 3510 ppm, leaf, 100 ppm): 113% | Extent of imparting plant stress tolerance (“Momotaro” tomato [2]; [3]): 117%

POE (20) sorbitan monolauric acid ester [Product of present invention 12]
Fresh weight, relative value (untreated plot = 100), Test 1 (potato; leaf): 128 | Fresh weight, relative value (untreated plot = 100), Test 4 (potato; leaf): 145 | Fresh weight, relative value (untreated plot = 100), Test 2 (potato; leaf): 143 | Fresh weight, relative value (untreated plot = 100), Test 3 (potato; leaf): 129 | Fresh weight, relative value (untreated plot = 100), Comparison 1 (potato; leaf): 101 | Fresh weight, relative value (untreated plot = 100), Comparison 1 (tomato; leaf): 102 | Fresh weight, relative value (untreated plot = 100), Test 1 (tomato; leaf): 124 | Fresh weight, relative value (untreated plot = 100), Test 2 (tomato; leaf): 126 | Fresh weight, relative value (untreated plot = 100), Test 3 (tomato; leaf): 144 | Fresh weight, relative value (untreated plot = 100), Test 4 (tomato; leaf): 132 | Extent of imparting plant stress tolerance (“Momotaro” tomato [1]; NaCl 3510 ppm, leaf, 100 ppm): 116% | Extent of imparting plant stress tolerance (“Momotaro” tomato [1]; NaCl 3510 ppm, leaf, 200 ppm): 120% | Extent of imparting plant stress tolerance (“Momotaro” tomato [2]; [3]): 115% | Extent of imparting plant stress tolerance (“Momotaro” tomato [2]; [4]): 118%

Alkyl (C10) polyglycoside [Product of present invention 15]
Fresh weight, relative value (untreated plot = 100), Test 1 (potato; leaf): 121 | Fresh weight, relative value (untreated plot = 100), Test 4 (potato; leaf): 134 | Fresh weight, relative value (untreated plot = 100), Test 2 (potato; leaf): 142 | Fresh weight, relative value (untreated plot = 100), Test 3 (potato; leaf): 121 | Fresh weight, relative value (untreated plot = 100), Comparison 1 (potato; leaf): 102 | Fresh weight, relative value (untreated plot = 100), Comparison 1 (tomato; leaf): 102 | Fresh weight, relative value (untreated plot = 100), Test 1 (tomato; leaf): 116 | Fresh weight, relative value (untreated plot = 100), Test 2 (tomato; leaf): 119 | Fresh weight, relative value (untreated plot = 100), Test 3 (tomato; leaf): 136 | Fresh weight, relative value (untreated plot = 100), Test 4 (tomato; leaf): 126 | Extent of imparting plant stress tolerance (“Momotaro” tomato [1]; NaCl 3510 ppm, leaf, 100 ppm): 115% | Extent of imparting plant stress tolerance (“Momotaro” tomato [1]; NaCl 3510 ppm, leaf, 200 ppm): 114% | Extent of imparting plant stress tolerance (“Momotaro” tomato [2]; [3]): 117% | Extent of imparting plant stress tolerance (“Momotaro” tomato [2]; [4]): 115%
